Experiment [1] has as its target T1, Peroxisome proliferator-activated receptor gamma (Homo sapiens) (UniProt P37231).
T1 sequence (whole entry): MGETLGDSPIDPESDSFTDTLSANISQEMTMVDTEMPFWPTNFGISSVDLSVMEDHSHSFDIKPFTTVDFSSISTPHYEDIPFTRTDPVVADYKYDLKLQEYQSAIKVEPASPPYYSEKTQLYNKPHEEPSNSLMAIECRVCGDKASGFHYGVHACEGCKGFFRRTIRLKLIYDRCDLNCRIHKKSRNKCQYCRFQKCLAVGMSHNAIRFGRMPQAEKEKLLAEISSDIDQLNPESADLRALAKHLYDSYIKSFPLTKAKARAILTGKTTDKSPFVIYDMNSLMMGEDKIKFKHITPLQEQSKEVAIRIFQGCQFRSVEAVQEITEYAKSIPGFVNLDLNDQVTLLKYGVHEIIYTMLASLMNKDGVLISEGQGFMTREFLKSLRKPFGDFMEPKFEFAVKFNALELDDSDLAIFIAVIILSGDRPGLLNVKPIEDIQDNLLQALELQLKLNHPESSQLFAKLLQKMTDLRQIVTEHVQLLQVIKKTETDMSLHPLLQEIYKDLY
Put plainly: Agonist activity at Homo sapiens (human) PPARgamma LBD expressed in African green monkey CV-1 cells co-expressing GAL4 assessed as beta-galactosidase activity at 10 uM after 24 hr by luciferase reporter gene assay relative to rosiglitazone. In kind it is cell-based. A general note: In a reporter assay the amount or activity of a reporter protein is the signal.

A further experiment concerns 3T3-L1. Kind of experiment: Induction of adipocyte differentiation in Mus musculus (mouse) 3T3L1 cells at 1 to 5 uM. The experiment is classed as functional, cell-based.
For experiment [2], the target named is T2, Type-1 angiotensin II receptor A (Rattus norvegicus, UniProt P25095).
T2 sequence (P25095 whole entry): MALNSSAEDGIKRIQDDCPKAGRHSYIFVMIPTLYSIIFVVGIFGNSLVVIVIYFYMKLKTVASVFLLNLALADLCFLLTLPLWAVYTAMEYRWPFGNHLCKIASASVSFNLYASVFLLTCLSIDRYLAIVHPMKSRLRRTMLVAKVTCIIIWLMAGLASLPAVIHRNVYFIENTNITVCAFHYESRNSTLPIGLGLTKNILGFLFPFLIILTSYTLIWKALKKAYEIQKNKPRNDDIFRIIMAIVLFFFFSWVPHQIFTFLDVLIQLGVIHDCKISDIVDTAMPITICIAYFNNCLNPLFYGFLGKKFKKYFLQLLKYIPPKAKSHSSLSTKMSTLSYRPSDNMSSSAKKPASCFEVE
Kind of experiment: Displacement of [125I]-SI-Ang-2 from AT1 receptor in Rattus norvegicus Sprague-Dawley (rat) liver membranes after 2 hr. Set-up: species or system Membrane. For orientation: Loss of bound radioactivity is the signal in a displacement assay; it reports binding, not function.

SMILES strings stand for the structures. Active and inactive are the calls of the source. The calls are words filed in the database; no cut-off is given here.

What is called Ki is a measure of affinity in units of concentration, obtained from inhibition or displacement.

On to `COC(=O)c1ccc(-c2ccc(Cn3cnc4ccc(-c5nc6ccccc6n5C)cc43)cc2)c(C(=O)OC)c1`, for which the %max in experiment [1] was 5.7%. Further, in the experiment on 3T3-L1, the result was inactive. The same compound had a Ki in experiment [2] above 10 µM.
In the same order, the values of `COC(=O)c1ccccc1-c1ccc(Cn2cnc3c(C)cccc32)cc1` are 4.7%, “inactive” and above 10 µM.
For `COC(=O)c1ccccc1-c1ccc(Cn2cnc3ccc(-c4nc5ccccc5n4C)cc32)cc1` the same measures were 6.3%, “inactive” and above 10 µM.
For `COC(=O)c1ccccc1-c1ccc(Cn2cnc3ccccc32)cc1` the same measures were 1.8%, “inactive” and above 10 µM.
On to `COC(=O)c1ccccc1-c1ccc(Cn2c(C)nc3ccc(-c4nc5ccccc5n4C)cc32)cc1`, for which the %max in experiment [1] stood at 6.8%. The result in the experiment with 3T3-L1 was inactive. Moreover, in experiment [2], the Ki is above 10 µM.
In the same order, the values of `CCCc1nc2c(C)cc(-c3nc4ccccc4n3C)cc2n1Cc1ccc(-c2ccc(C(=O)O)cc2C(=O)O)cc1` are “inactive”, “inactive” and 0.188 µM.
In the same order, the values of `COC(=O)c1ccc(-c2ccc(Cn3cnc4ccc(-c5nc6ccccc6n5C)cc43)cc2)cc1` are 3.6%, “inactive” and above 10 µM.
Take `COC(=O)c1ccc(-c2ccc(Cn3c(C)nc4ccc(-c5nc6ccccc6n5C)cc43)cc2)c(C(=O)OC)c1`: the %max in experiment [1] is 2.8%. Further, the outcome in the experiment with 3T3-L1 was inactive. This compound had a Ki in experiment [2] above 10 µM.
In the same order, the values of `CCCc1nc2c(C)cc(-c3nc4ccccc4n3C)cc2n1Cc1ccc(-c2ccc(C(=O)OC)cc2C(=O)OC)cc1` are 8%, “inactive” and 0.65 µM.
For `Cn1c(-c2ccc3ncn(Cc4ccc(-c5ccccc5)cc4)c3c2)nc2ccccc21` the same measures were 5.7%, “inactive” and above 10 µM.
For `COC(=O)c1ccc(-c2ccc(Cn3c(C)nc4ccc(-c5nc6ccccc6n5C)cc43)cc2)cc1` the same measures were 7.3%, “inactive” and above 10 µM.
With `CCCc1nc2c(C)cc(-c3nc4ccccc4n3C)cc2n1Cc1ccc(-c2ccccc2C(=O)O)cc1` [TELMISARTAN], the %max in experiment [1] was 21.2%. For the same compound, the outcome in the experiment with 3T3-L1 was Active. Also, the Ki in experiment [2] was 0.00023 µM.

The values above are taken from ChEMBL document CHEMBL3046017, “Design, synthesis, and docking studies of telmisartan analogs for the treatment of metabolic syndrome” (Med Chem Res, 2009).
